Usually EC50 stands for the concentration giving half of the maximal effect.

Structures are written as SMILES.

This note sets out measurements from patent US10722505B2, “Substituted 2,4 diamino-quinoline as new anticancer agents” (GENOSCIENCE PHARMA, priority 2014, dated 2020).

This test concerns BEL-7402 cells line. As to the kind of experiment: CellTiter-Glo growth inhibition assay, BEL-7402 (internal control). It counts as cell-based. Conditions: Homo sapiens, 72 h. Here is the method:
When performing the assay, dose response test of Doxorubicin on BEL-7402 cells line (human primary hepatocellular carcinoma) will be used as internal control in each assay plate for the assay. The MEM medium supplemented with 5% H2O (5×) will be added into the cells as a negative controls. The final H2O concentration was 1% in each well.
Cells in log-phase are collected and counted. Cell suspensions are added to each well of 384-well plate at 800 cells per well (total volume 40 μl). The margin wells are filled with PBS buffer. Test compound at various concentrations are added in duplicates (add 10 μl 5× compound solutions to the plate). The assay plate is incubated for 72 h in 37° C./5% CO2 incubator. Cell viability was measured using the CellTiter-Glo® luminescent cell viability assay as described by the manufacturer (Promega, Ref G7571). After addition of 100 μL of CellTiter-Glo® reactifs solution, luminescence was measured using a PHERAstar Plus luminometer. Data were recorded by PHERAstar Plus, Data acquisition and analysis were performed using Microsoft Excel program and GraphPad Prism v.6 software.
(ATP-based viability assays read luminescence as a measure of living cells.)

In turn, `COc1cccc2c1C(=O)c1c(O)c3c(c(O)c1C2=O)C[C@@](O)(C(=O)CO)C[C@@H]3O[C@H]1C[C@H](N)[C@H](O)[C@H](C)O1` [Doxorubicin] showed a concentration giving a half-maximal response (EC50) of 150 nM.
